Measurements published in US9446061B2, “Composition containing antibiotics and lysophosphatidylcholine for boosting immunity or treatment of bacterial infections” (priority 2011, dated 2016).
Marks after values point to notes of the source that are not given here.

Key:
[1] = tested on: thymic CD3+, CD4+, CD8+ and TNF-α+ cells; assay: Immunohistochemistry of thymus (cortex and medulla) in CPA-treated mice; assay type: in vivo, ICR mice; details: for numbers of thymic cortex CD3+ cells, change compared to CPA control / numbers of thymic cortex CD4+ cells, change compared to CPA control / numbers of thymic cortex CD8+ cells, change compared to CPA control / numbers of thymic medulla CD3+ cells, change compared to CPA control / numbers of thymic medulla CD4+ cells, change compared to CPA control / numbers of thymic medulla CD8+ cells, change compared to CPA control / thymic cortex TNF-α+ cells, change compared to CPA control / thymic medulla TNF-α+ cells, change compared to CPA control: LPC 1, DW286 0.5, Mix 0.75 mg/kg; for CD3+ cells, Thymus: Cortex (IHC-Histomorphometry) / CD4+ cells, Thymus: Cortex (IHC-Histomorphometry) / CD8+ cells, Thymus: Cortex (IHC-Histomorphometry) / TNF-α+ cells, Thymus: Cortex (IHC-Histomorphometry) / CD3+ cells, Thymus: Medulla (IHC-Histomorphometry) / CD4+ cells, Thymus: Medulla (IHC-Histomorphometry) / CD8+ cells, Thymus: Medulla (IHC-Histomorphometry) / TNF-α+ cells, Thymus: Medulla (IHC-Histomorphometry): CPA-treated mice, Mean ± S.D., n = 9
Protocol: (§1) After deparraffinized, CD3 epitope retrievals were conducted in 10 mM Tris-1 mM EDTA Buffer (pH 9.0), CD4 and CD8 in 1 mM EDTA Buffer (pH 8.0), and TNF-α in 10 mM Citrate Buffer (pH 6.0) as previous methods. Primary anti-antibodies used in the invention were as following table.
(§2) The water bath with a staining dish, containing a buffer, was preheated until the temperature reached 95-100. The staining dish was placed at room temperature and the slides were cooled for 20 minutes. After epitope retrivals, sections were immunostained as following steps
(§3) First, the sections were incubated with methanol and 0.3% H2O2 for 30 min to block endogenous peroxidase activity at room temperature, and then rinsed three times in 0.01M phosphate buffered saline (PBS; pH 7.2) for 3 times. Then, the sections were incubated with the normal horse serum blocking solution (Vector Lab. Inc., CA, USA., dilution 1:100) for 1 hr at room temperature in a humidity chamber, to block non-specific binding of immunoglobulin, and then rinsed three times in 0.01M PBS. The sections were incubated with four types of primary antisera for 12 hrs at 4 in a humidity chamber, and then rinsed three times in 0.01M PBS. The sections were incubated with universal biotinylated secondary antibody for 1 hr at room temperature in a humidity chamber, and then rinsed three times in 0.01M PBS. The sections were incubated with ABC reagents (Vectastain Elite ABC Kit, Vector Lab. Inc., CA, USA. Dilution 1:50) for 1 hr at room temperature in a humidity chamber, and then rinsed three times in 0.01M PBS. The sections were incubated in the peroxidase substrate kit (Vector Lab. Inc., CA) for 30 seconds at room temperature, and then rinsed three times in 0.01M PBS. The sections were counterstained with the Mayer's hematoxylin solution, and then rinsed in running tap water for 30 minutes. The sections were dehydrated through 95% ethanol for 2 min and 100% ethanol for […], and then rinsed in xylene for 2 hrs. After that, the sections were observed using a cover slip with permanent mounting medium under the light microscope (Zeiss, Germany).
(§4) Histomorphometry—Among 1000 splenic or thymic cells, the numbers (N) of immunoreactive cells (CD3+, CD4+, CD8+, and TNF-α+) were observed as N/1000 splenocytes or thymocytes using automated image analysis. In thymus, the counts were conducted in the both cortex and medulla separately.

[2] = Body weight of CPA-treated mice (Example 9); s.c. 4 times 12-hr intervals from 24 hrs after last CPA-dosing; details: LPC 1, DW286 0.5, Mix 0.75 mg/kg
Protocol: In the INTACT control group, an equal volume of physiological saline was dosed instead of CPA by the same method.
In Intact control animals, equal volume of saline was only dosed instead of CPA with same methods.
In CPA-CLP model, body weight and mortalities were measured once a day for 5 days with automatic electronic balances (Sartorius Co., Ltd., USA), once a day for 2 days in CPA-treated model. All animals were overnight fasted at CPA dosing, CLP or initial dosing to reduce differences from feeding. In addition, body weight gains were calculated as follows:
CPA-Treat Model: Body weight at sacrifice—at initial dosing (2 days)
To find suitable dosing regime of LPC and DW286AA combination during the development of new therapeutic agents against sepsis, evaluation was conducted by using CPA-CLP— and CPA-induced immunosuppressive mice. […] Then, mortalities, changes in thymus and spleen weights, changes in white blood cell (WBC) number, and changes in thymic and splenic CD3+, CD4+, CD8+, and TNF-α+ cell numbers, were evaluated together with changes in bone marrow polychromatic erythrocytes contain micronuclei (MNPCE) number.
Appropriate doses of candidate materials were dissolved in 5% human serum albumin, and subcutaneously dosed at 10 ml/kg (of body weight), 4 times 12-hr intervals from 6 hrs after CLP or 24 hrs after last CPA-dosing, respectively. In the INTACT, CPA, or CPA-CLP control groups, an equal volume of 5% human serum albumin was dosed by the same procedure.

[3] = tested on: splenic CD3+, CD4+, CD8+ and TNF-α+ cells; assay: Immunohistochemistry of spleen in CPA-treated mice; assay type: in vivo, ICR mice; details: for numbers of splenic CD3+ cells, change compared to CPA control / numbers of splenic CD4+ cells, change compared to CPA control / numbers of splenic CD8+ cells, change compared to CPA control / splenic TNF-α+ cells, change compared to CPA control: LPC 1, DW286 0.5, Mix 0.75 mg/kg; for CD3+ cells, Spleen (IHC-Histomorphometry) / CD4+ cells, Spleen (IHC-Histomorphometry) / CD8+ cells, Spleen (IHC-Histomorphometry) / TNF-α+ cells, Spleen (IHC-Histomorphometry): CPA-treated mice, Mean ± S.D., n = 9
Protocol: as §1, §2, §3, §4

[4] = tested on: CPA-induced immunosuppressive mice; assay: Histopathology/histomorphometry of thymus and spleen in CPA-treated mice; assay type: in vivo, ICR mice; details: for Spleen: Number of white pulps / Thymus: Incidences of thymic cortex atrophy (atrophic changes/total observed number of thymus) / incidences of decrease of lymphoid cells in the thymic cortex / numbers of white pulps of spleen, change compared to CPA control: LPC 1, DW286 0.5, Mix 0.75 mg/kg
Protocol: After measuring of organ weight, thymus and spleen was sampled. Sampled organs were fixed in 10% neutral buffered formalin. After paraffin embedding, 3-4 μm sections were prepared. Representative sections were stained with Hematoxylin and Eosin (H&E) for light microscopical examination. After that the histological profiles of individual organs were observed.
The numbers of white pulps in spleen were calculated as N/histological sections (×50) using automated image analysis (analySIS Image Processing; SIS, Germany). In addition, the numbers of atrophic changes on thymic cortex/total observed number of thymus were also calculated.

[5] = At First CPA dosing (overnight fasted)

Compound	numbers of thymic cortex CD3+ cells, change compared to CPA control [1]	numbers of thymic cortex CD4+ cells, change compared to CPA control [1]	numbers of thymic cortex CD8+ cells, change compared to CPA control [1]	numbers of thymic medulla CD3+ cells, change compared to CPA control [1]	numbers of thymic medulla CD4+ cells, change compared to CPA control [1]	numbers of thymic medulla CD8+ cells, change compared to CPA control [1]	thymic cortex TNF-α+ cells, change compared to CPA control [1]	thymic medulla TNF-α+ cells, change compared to CPA control [1]	CD3+ cells, Thymus: Cortex (IHC-Histomorphometry) [1]	CD4+ cells, Thymus: Cortex (IHC-Histomorphometry) [1]	CD8+ cells, Thymus: Cortex (IHC-Histomorphometry) [1]	TNF-α+ cells, Thymus: Cortex (IHC-Histomorphometry) [1]	CD3+ cells, Thymus: Medulla (IHC-Histomorphometry) [1]	CD4+ cells, Thymus: Medulla (IHC-Histomorphometry) [1]	CD8+ cells, Thymus: Medulla (IHC-Histomorphometry) [1]	TNF-α+ cells, Thymus: Medulla (IHC-Histomorphometry) [1]	Body weight ([2]; 1 day after second CPA-dosing)	Body weight ([2]; 2 days after second CPA-dosing)	Body weight ([2]; At Dosing (overnight fasted))	Body weight [2, 5]	further results
CON=C1CN(c2nc3c(cc2F)c(=O)c(C(=O)O)cn3C2CC2)CC1(C)CN.Cl (stereo not shown) [DW286aa, 7-[3-(aminomethyl)-4-(methoxyimino)-3-methyltetrahydro-1H-1-pyrrolyl]-1-cyclopropyl-6-fluoro-4-oxo-1,4-dihydro[1,8]naphthyridine-3-carboxylic acid hydrochloric acid salt]	−9.16%	21.74%	33.33%	−33.33%	27.27%	−22.22%	−13.040%	0.00%	165.33 N/1000 splenocytes or thymocytes	3.11 N/1000 splenocytes or thymocytes	4.00 N/1000 splenocytes or thymocytes	2.22 N/1000 splenocytes or thymocytes	0.22 N/1000 splenocytes or thymocytes	1.78 N/1000 splenocytes or thymocytes	1.56 N/1000 splenocytes or thymocytes	0.00 N/1000 splenocytes or thymocytes	37.46 ± 1.96 g	38.61 ± 1.95 g	33.02 ± 1.95 g	36.84 ± 1.83 g	Body weight gains during 2 days after dosing [2]: 5.59 ± 1.03 g; body weight (gains) change compared to the CPA control group [2]: −1.37%; numbers of splenic CD3+ cells, change compared to CPA control [3]: −14.02%; numbers of splenic CD4+ cells, change compared to CPA control [3]: −10.82%; numbers of splenic CD8+ cells, change compared to CPA control [3]: −10.63%; splenic TNF-α+ cells, change compared to CPA control [3]: −13.840%; CD3+ cells, Spleen (IHC-Histomorphometry) [3]: 55.89 N/1000 splenocytes or thymocytes; CD4+ cells, Spleen (IHC-Histomorphometry) [3]: 41.22 N/1000 splenocytes or thymocytes; CD8+ cells, Spleen (IHC-Histomorphometry) [3]: 45.78 N/1000 splenocytes or thymocytes; TNF-α+ cells, Spleen (IHC-Histomorphometry) [3]: 40.11 N/1000 splenocytes or thymocytes; Spleen: Number of white pulps [4]: 6.11 ± 1.45 N/histological sections; Thymus: Incidences of thymic cortex atrophy (atrophic changes/total observed number of thymus) [4]: 9/9 (100%); incidences of decrease of lymphoid cells in the thymic cortex [4]: 100%; numbers of white pulps of spleen, change compared to CPA control [4]: −1.79%
Lysophosphatidylcholine [LPC]	328.69%	408.70%	11.11%	12466.67%	−9.09%	−5.56%	65.22%	133.33%	780.22 ± 85.78 N/1000 splenocytes or thymocytes	13.00 ± 2.45*^,# N/1000 splenocytes or thymocytes	3.33 ± 1.22 N/1000 splenocytes or thymocytes	4.22 ± 1.20 N/1000 splenocytes or thymocytes	41.89 ± 10.23*^,# N/1000 splenocytes or thymocytes	2.22 ± 0.97 N/1000 splenocytes or thymocytes	1.89 ± 0.60 N/1000 splenocytes or thymocytes	1.33 ± 1.00 N/1000 splenocytes or thymocytes	36.54 ± 1.72 g	37.04 ± 1.47 g	32.08 ± 1.47 g	36.58 ± 1.36 g	Body weight gains during 2 days after dosing [2]: 4.97 ± 1.67 g; body weight (gains) change compared to the CPA control group [2]: −12.35%; numbers of splenic CD3+ cells, change compared to CPA control [3]: 18.29%; numbers of splenic CD4+ cells, change compared to CPA control [3]: 136.54%; numbers of splenic CD8+ cells, change compared to CPA control [3]: 72.89%; splenic TNF-α+ cells, change compared to CPA control [3]: 36.75%; CD3+ cells, Spleen (IHC-Histomorphometry) [3]: 76.89 ± 6.23*^,## N/1000 splenocytes or thymocytes; CD4+ cells, Spleen (IHC-Histomorphometry) [3]: 109.33 ± 20.77*^,# N/1000 splenocytes or thymocytes; CD8+ cells, Spleen (IHC-Histomorphometry) [3]: 88.56 ± 11.18*^,# N/1000 splenocytes or thymocytes; TNF-α+ cells, Spleen (IHC-Histomorphometry) [3]: 63.67 ± 9.10*^,# N/1000 splenocytes or thymocytes; atrophic changes (decreases in lymphoid cells in the thymic cortex), FIG. 7 ([4]; CPA-treated model, in words): effectively inhibited; splenic atrophy and decrease in lymphoid cells, FIG. 8 ([4]; CPA-treated model, in words): effectively inhibited; Spleen: Number of white pulps [4]: 12.56 ± 1.81*^,# N/histological sections; Thymus: Incidences of thymic cortex atrophy (atrophic changes/total observed number of thymus) [4]: 8/9 (88.89%); incidences of decrease of lymphoid cells in the thymic cortex [4]: 88.89%; numbers of white pulps of spleen, change compared to CPA control [4]: 101.79%
